Test results from patent publication US4107158A, “Process for making an octapeptide useful for the treatment of diabetes” (Choay S.A., priority 1974, dated 1978).
Where no end group is shown, it is not given here.

What was measured:
[1] = target: glyceraldehyde 3-phosphate dehydrogenase (Homo sapiens, UniProt P04406); experiment: Enzymatic effect in vitro: lifting of somantine inhibition of glyceraldehyde 3-phosphate dehydrogenase; assay type: biochemical
Procedure: In this test, the compound (I) was tested for its ability to raise the inhibition of a somantine extracted from a plasma with respect to the action of glyceraldehyde 3-phosphate dehydrogenase.
To this end, the activity of the enzyme in the presence successively of somantine alone, of the compound (1) alone, and finally in the presence of somantine and of the compound (I), were measured.
In this test, the glyceraldehyde 3-phosphate dehydrogenase was used at a concentration of […], the somantine at 25 μg/ml, and the compound (I) at 50 μg/ml.
The method used for the measurements is that of Pihl and Lang (J. Biol. Chem 237 : 1356 - 1362, 1962).
The percentage of inhibition of the enzyme found under these conditions is as follows: […]

[2] = system: glucose receptors of the Langerhans islets; experiment: Glucose-stimulated insulin liberation from Langerhans islets of treated animals; assay type: cell-based; conditions: islets removed one day or four days after injection of octapeptide; versus controls
Procedure: Finally, the effect of the octapeptide (I) on the glucose receptors of the Langerhans islets was determined. For this purpose, the octapeptide (I) was injected into animals.
One day or four days later, the animals were killed and the islets of Langerhans removed. The latter were placed in a reaction medium supplemented with glucose, and the amount of insulin liberated was determined and compared tocontrols.

[3] = system: adult rabbits; experiment: Effect on the in vivo effect of insulin: intravenous glucose tolerance in the rabbit
Procedure: The assays were carried out in the course of the tests carried out to determine the resistance to glucose injected by the intravenous route in the rabbit.
These tests were done on adult rabbits, which had been subjected to prior fasting for 24 hours. Blood was drawn off and the glucose level in the blood samples was determined. The measurement was carried out by the ferricyanide method as adapted for the "Technicon Autoanalyser" (J. Biol. Chem. 120 : 51 - 55, 1937). In this way the glucose level on fasting, then its variation after the intravenous injection of glucose, at the dose of 1 gram per kilo, was determined. These measurements were then renewed in rabbits which had received, 5 minutes after the glucose, an intravenous injection of the compound (1) (5μg/kg).

[4] = system: hepatic cells; experiment: Insulin binding to hepatic cells; assay type: cell-based
Procedure: In the same way, the ratio of insulin binding to hepatic cells placed in a suitable reaction medium was measured. When the medium contains octapeptide (I), the ratio of insulin binding to the hepatic cells increases. The result is similar if the said cells are incubated with octapeptide (I).

[5] = system: mice; experiment: Influence on glycemia in mice after glucose injection; assay type: in vivo
Source text: d. Influence of octapeptide (I) on glycemia has been determined in mice under conditions similar to those described for rabbits. The experiment included two series of tests aimed at studying the immediate effects and the prolonged effects.
In the first series of tests, a simultaneous injection of glucose and of the octapeptide (1) was made, and the lowering of glycemia with respect to that of control animals which had not received glucose, was followed as a function of time.
The injections were respectively of 0.25 g of glucose and 2 mg per kilo of body weight of the animal, namely about 40 μg, of octapeptide (I) or […].
In the second series of tests, the mice received the product before the injection of glucose. Three injections each of 40μg of octapeptide (1) were administered respectively 72, 48 and 24 hous before the injection of glucose.

[6] = system: insulin receptors of lipid cells; experiment: Insulin binding to trypsinated lipid cells; assay type: cell-based; conditions: octapeptide introduced into the medium; trypsinated cells alone no longer fix insulin
Source text: In an attempt to elucidate the mechanism of action of the octapeptide (I) with respect to insulin, the phenomena were first studied at the level of the insulin receptors of lipid cells trypsinated to destroy said receptors.

[7] = system: mice; experiment: Tolerance: acute and subacute toxicity study in mice; assay type: in vivo; conditions: 1 month, daily dosages 5 to 10 times the active dosage
Procedure: An acute and subacute toxicity study was carried out on mice for 1 month, each mouse receiving daily dosages corresponding to 5 to 10 times the active dosage.

[8] = system: diabetic rats; experiment: Effect on glycemia in diabetic animals; assay type: in vivo; conditions: glucose 0.5 g/kg; for course of glycemia after simultaneous injection with glucose: diabetic rats fasted 4 hours, octapeptide 2 μg/g
Procedure: In this test, the drop in glycemia was compared after the simultaneous injection of glucose, on the one hand, and, on the other hand, either of the octapeptide at the dosage of 2 μg (I), or of insulin, or again of both at once. In that latter case the dosage of octapeptide used was also 2μg/g. The tests were carried out on diabetic rats, kept fasting for 4 hours before the injection of glucose (at the dose of 0.5 g/kg of animal).

[9] = system: isolated hemidiaphragm of the rat; experiment: Consumption of glucose in vitro, isolated rat hemidiaphragm; assay type: cell-based, Wistar albino male rats
Procedure: To follow this consumption, the isolated hemidiaphragm of the rat in vitro was used. The method employed is that described by Park et al. (Effect of insulin on free glucose content of rat diaphragm in vitro -- Amer. J. Physiol. 182 : 12 - 16, 1955). The hemidiaphragm derived from Wistar albino male rats each weighing 200 to 250 g was used. The rats were fed freely for 7 days and then starved for 24 hours. The solutions studied contained 2 mg/ml of glucose, 500 μU/ml of insulin. The compound (I) was introduced at 250 μg/ml. The consumption of glucose related to the weight of tissue in grams and per hour was under these conditions: […]

Sequence of glyceraldehyde 3-phosphate dehydrogenase (P04406 whole entry, species assumed): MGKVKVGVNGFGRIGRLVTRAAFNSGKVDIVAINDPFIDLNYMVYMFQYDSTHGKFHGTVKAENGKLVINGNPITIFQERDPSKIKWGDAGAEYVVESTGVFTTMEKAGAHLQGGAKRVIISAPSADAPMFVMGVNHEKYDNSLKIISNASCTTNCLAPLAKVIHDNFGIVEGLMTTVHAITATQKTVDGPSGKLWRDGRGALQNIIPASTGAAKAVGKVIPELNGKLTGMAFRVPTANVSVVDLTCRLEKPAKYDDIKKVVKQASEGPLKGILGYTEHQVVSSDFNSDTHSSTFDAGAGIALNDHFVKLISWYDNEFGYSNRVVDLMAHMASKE

## LSRLFDNA [compound (I), leucyl--seryl--arginyl--leucyl--phenylalanyl--aspartyl--asparaginyl-alanine]
[1]; compound (I) 50 μg/ml together with somantine 25 μg/ml
  effect on the inhibiting effect of somantine (in words): partly suppressed
[1]; compound (I) alone, 50 μg/ml
  effect on the activity of the enzyme (in words): practically without effect
[1]; enzyme 0.5 μml, somantine 25 μg/ml, compound (I) 50 μg/ml, read-out: percentage of inhibition of the enzyme
  inhibition at 50 µg/mL: 1%
[2]
  level of insulin liberated by Langerhans islets in glucose-supplemented medium: very substantial increase
[3]; glucose 1 g/kg i.v., compound 5 μg/kg i.v.
  glucose level reached, compared with fasting level: less than those which were measured in the fasting rabbits
[3]; glucose 1 g/kg i.v., compound 5 μg/kg i.v. 5 minutes after glucose, versus rabbits without compound
  decrease in the glucose level after i.v. glucose: greater
[3]; similar tests at intervals of several days
  persistence of effect on the carbohydrate metabolism after injection: persists several days
[4]; cells incubated with octapeptide (I)
  ratio of insulin binding to hepatic cells: similar
[4]; medium contains octapeptide (I)
  ratio of insulin binding to hepatic cells: increases
[5]; simultaneous injection of glucose and about 40 μg octapeptide, versus controls
  drop in glycemia, immediate effect: distinctly more accentuated
[5]; three injections of 40 μg at 72, 48 and 24 hours before glucose, versus controls receiving only glucose
  drop in glycemia, prolonged effect: more rapid drop in glycemia
[6]
  insulin binding to trypsinated lipid cells: the binking reasppears
[7]
  toxic effect, macro and microscopic studies: not shown any toxic effect
[8]
  course of glycemia after simultaneous injection with glucose: practically unmodified
[9]; compound (I) 250 μg/ml added to glucose + insulin
  consumption of glucose in the presence of insulin (in words): increased

## insulin: insulin, 500 μU/ml in glucose solution in the hemidiaphragm test
[8]
  course of glycemia after simultaneous injection with glucose: decreases rapidly, stabilises, then rises again
[8]; diabetic rats
  time after which glycemia rises again: about 120 minutes
[9]; related to weight of tissue in grams and per hour, glucose 2 mg/ml, insulin 500 μU/ml, compound (I) 250 μg/ml
  Consumption of glucose: 4.10 ± 0.15 mg
